# Data reported in PubChem BioAssay (NCI).
#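 The compound was tested at five concentrations on cells cultured in 96-well plates, with a 48-hour exposure period. TGI denotes the concentration required for complete inhibition of growth.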
# Experiments:
# Test in all cases: DTP human tumour cell line panel, 48 h
# 786-0 renal = system: 786-0 renal
# EKVX NSCLC = system: EKVX NSCLC
# ACHN renal = system: ACHN renal
# SNB-78 CNS = system: SNB-78 CNS
# OVCAR-4 ovarian = system: OVCAR-4 ovarian
# DMS 273 small cell lung = system: DMS 273 small cell lung
# M14 melanoma = system: M14 melanoma
# LXFL 529 NSCLC = system: LXFL 529 NSCLC
# RPMI-8226 leukemia = system: RPMI-8226 leukemia
# HOP-62 NSCLC = system: HOP-62 NSCLC
# COLO 205 colon = system: COLO 205 colon
# A549 NSCLC = system: A549 NSCLC
# U251 CNS = system: U251 CNS
# A498 renal = system: A498 renal
# HOP-18 NSCLC = system: HOP-18 NSCLC
# HOP-92 NSCLC = system: HOP-92 NSCLC
# SF-295 CNS = system: SF-295 CNS
# TK-10 renal = system: TK-10 renal
# KM20L2 colon = system: KM20L2 colon
# SK-MEL-28 melanoma = system: SK-MEL-28 melanoma
# SNB-75 CNS = system: SNB-75 CNS
# RXF-631 renal = system: RXF-631 renal
# DMS 114 small cell lung = system: DMS 114 small cell lung
# DLD-1 colon = system: DLD-1 colon
# MOLT-4 leukemia = system: MOLT-4 leukemia
# NCI-H460 lung = system: NCI-H460 lung
# UACC-62 melanoma = system: UACC-62 melanoma
# SN12C renal = system: SN12C renal
# HCT-15 colon = system: HCT-15 colon
# HCT-116 colon = system: HCT-116 colon
# HL-60(TB) leukemia = system: HL-60(TB) leukemia
# SK-OV-3 ovarian = system: SK-OV-3 ovarian
# SW-620 colon = system: SW-620 colon
# M19-MEL melanoma = system: M19-MEL melanoma
# XF 498 CNS = system: XF 498 CNS
# K-562 leukemia = system: K-562 leukemia
# SNB-19 CNS = system: SNB-19 CNS
# SF-539 CNS = system: SF-539 CNS
# LOX IMVI melanoma = system: LOX IMVI melanoma
# SK-MEL-5 melanoma = system: SK-MEL-5 melanoma
# OVCAR-3 ovarian = system: OVCAR-3 ovarian
# RXF 393 renal = system: RXF 393 renal
# CCRF-CEM leukemia = system: CCRF-CEM leukemia
# OVCAR-8 ovarian = system: OVCAR-8 ovarian
# IGROV1 ovarian = system: IGROV1 ovarian
# NCI-H23 lung = system: NCI-H23 lung
# HCC-2998 colon = system: HCC-2998 colon
# SK-MEL-2 melanoma = system: SK-MEL-2 melanoma
# OVCAR-5 ovarian = system: OVCAR-5 ovarian
# UO-31 renal = system: UO-31 renal
# SF-268 CNS = system: SF-268 CNS
# SR leukemia = system: SR leukemia
# NCI-H226 lung = system: NCI-H226 lung
# MALME-3M melanoma = system: MALME-3M melanoma
# HT29 colon = system: HT29 colon
# NCI-H522 lung = system: NCI-H522 lung
# UACC-257 melanoma = system: UACC-257 melanoma
# CAKI-1 renal = system: CAKI-1 renal
# KM12 colon = system: KM12 colon
structure (smiles),measurement,setting,value
CCOC(=O)c1ccc(/C(C)=N/NC(N)=S)cc1,TGI,786-0 renal,> 100 µM
same,TGI,EKVX NSCLC,> 100 µM
same,TGI,ACHN renal,> 100 µM
same,TGI,SNB-78 CNS,> 100 µM
same,TGI,OVCAR-4 ovarian,> 100 µM
same,TGI,DMS 273 small cell lung,> 100 µM
same,TGI,M14 melanoma,> 100 µM
same,TGI,LXFL 529 NSCLC,> 100 µM
same,TGI,RPMI-8226 leukemia,> 100 µM
same,TGI,HOP-62 NSCLC,> 100 µM
same,TGI,COLO 205 colon,> 100 µM
same,TGI,A549 NSCLC,> 100 µM
same,TGI,U251 CNS,> 100 µM
same,TGI,A498 renal,> 100 µM
same,TGI,HOP-18 NSCLC,> 100 µM
same,TGI,HOP-92 NSCLC,> 100 µM
same,TGI,SF-295 CNS,> 100 µM
same,TGI,TK-10 renal,> 100 µM
same,TGI,KM20L2 colon,> 100 µM
same,TGI,SK-MEL-28 melanoma,> 100 µM
same,TGI,SNB-75 CNS,> 100 µM
same,TGI,RXF-631 renal,> 100 µM
same,TGI,DMS 114 small cell lung,> 100 µM
same,TGI,DLD-1 colon,> 100 µM
same,TGI,MOLT-4 leukemia,> 100 µM
same,TGI,NCI-H460 lung,> 100 µM
same,TGI,UACC-62 melanoma,> 100 µM
same,TGI,SN12C renal,> 100 µM
same,TGI,HCT-15 colon,> 100 µM
same,TGI,HCT-116 colon,> 100 µM
same,TGI,HL-60(TB) leukemia,> 100 µM
same,TGI,SK-OV-3 ovarian,> 100 µM
same,TGI,SW-620 colon,> 100 µM
same,TGI,M19-MEL melanoma,> 100 µM
same,TGI,XF 498 CNS,> 100 µM
same,TGI,K-562 leukemia,> 100 µM
same,TGI,SNB-19 CNS,> 100 µM
same,TGI,SF-539 CNS,> 100 µM
same,TGI,LOX IMVI melanoma,> 100 µM
same,TGI,SK-MEL-5 melanoma,> 100 µM
same,TGI,OVCAR-3 ovarian,> 100 µM
same,TGI,RXF 393 renal,> 100 µM
same,TGI,CCRF-CEM leukemia,> 100 µM
same,TGI,OVCAR-8 ovarian,> 100 µM
same,TGI,IGROV1 ovarian,> 100 µM
same,TGI,NCI-H23 lung,> 100 µM
same,TGI,HCC-2998 colon,> 100 µM
O=C(CC1C(=O)Nc2ccccc2S1=O)Nc1cc(Cl)ccc1Cl (configuration not stated),TGI,786-0 renal,> 100 µM
same,TGI,SK-MEL-2 melanoma,> 100 µM
same,TGI,EKVX NSCLC,> 100 µM
same,TGI,ACHN renal,> 100 µM
same,TGI,SNB-78 CNS,> 100 µM
same,TGI,OVCAR-5 ovarian,> 100 µM
same,TGI,DMS 273 small cell lung,> 100 µM
same,TGI,M14 melanoma,> 100 µM
same,TGI,LXFL 529 NSCLC,> 100 µM
same,TGI,UO-31 renal,> 100 µM
same,TGI,SF-268 CNS,> 100 µM
same,TGI,RPMI-8226 leukemia,> 100 µM
same,TGI,A549 NSCLC,> 100 µM
same,TGI,U251 CNS,> 100 µM
same,TGI,A498 renal,> 100 µM
same,TGI,HOP-92 NSCLC,> 100 µM
same,TGI,SF-295 CNS,> 100 µM
same,TGI,TK-10 renal,> 100 µM
same,TGI,SR leukemia,> 100 µM
same,TGI,NCI-H226 lung,> 100 µM
same,TGI,KM20L2 colon,> 100 µM
same,TGI,SK-MEL-28 melanoma,> 100 µM
same,TGI,SNB-75 CNS,> 100 µM
same,TGI,RXF-631 renal,> 100 µM
same,TGI,DMS 114 small cell lung,> 100 µM
same,TGI,DLD-1 colon,> 100 µM
same,TGI,MOLT-4 leukemia,> 100 µM
same,TGI,NCI-H460 lung,> 100 µM
same,TGI,UACC-62 melanoma,> 100 µM
same,TGI,SN12C renal,> 100 µM
same,TGI,HCT-15 colon,> 100 µM
same,TGI,MALME-3M melanoma,> 100 µM
same,TGI,HCT-116 colon,> 100 µM
same,TGI,HL-60(TB) leukemia,> 100 µM
same,TGI,HT29 colon,> 100 µM
same,TGI,NCI-H522 lung,> 100 µM
same,TGI,SW-620 colon,> 100 µM
same,TGI,UACC-257 melanoma,> 100 µM
same,TGI,M19-MEL melanoma,> 100 µM
same,TGI,XF 498 CNS,> 100 µM
same,TGI,K-562 leukemia,> 100 µM
same,TGI,SNB-19 CNS,> 100 µM
same,TGI,SF-539 CNS,> 100 µM
same,TGI,CAKI-1 renal,> 100 µM
same,TGI,LOX IMVI melanoma,> 100 µM
same,TGI,SK-MEL-5 melanoma,> 100 µM
same,TGI,OVCAR-3 ovarian,> 100 µM
same,TGI,RXF 393 renal,> 100 µM
same,TGI,CCRF-CEM leukemia,> 100 µM
same,TGI,OVCAR-8 ovarian,> 100 µM
same,TGI,IGROV1 ovarian,> 100 µM
same,TGI,NCI-H23 lung,> 100 µM
same,TGI,HCC-2998 colon,> 100 µM
O=C1CCC2(c3ccc(Cl)cc3)Nc3cc(Cl)ccc3N12 (configuration not stated),TGI,786-0 renal,21.8 µM
same,TGI,KM12 colon,24.4 µM
same,TGI,SK-MEL-2 melanoma,23.8 µM
same,TGI,EKVX NSCLC,29.1 µM
same,TGI,ACHN renal,24 µM
same,TGI,SNB-78 CNS,43.4 µM
same,TGI,OVCAR-4 ovarian,23.1 µM
same,TGI,DMS 273 small cell lung,22.3 µM
same,TGI,M14 melanoma,28.7 µM
same,TGI,LXFL 529 NSCLC,24.6 µM
same,TGI,UO-31 renal,29.2 µM
same,TGI,SF-268 CNS,25.8 µM
same,TGI,RPMI-8226 leukemia,> 100 µM
same,TGI,HOP-62 NSCLC,29.2 µM
same,TGI,COLO 205 colon,18 µM
same,TGI,A549 NSCLC,26.5 µM
same,TGI,U251 CNS,24.3 µM
same,TGI,A498 renal,24.6 µM
same,TGI,HOP-18 NSCLC,14.6 µM
same,TGI,SF-295 CNS,21.4 µM
same,TGI,SR leukemia,> 100 µM
same,TGI,KM20L2 colon,28.9 µM
same,TGI,SK-MEL-28 melanoma,25.3 µM
same,TGI,SNB-75 CNS,27.7 µM
same,TGI,RXF-631 renal,28.9 µM
same,TGI,DMS 114 small cell lung,21 µM
same,TGI,DLD-1 colon,20 µM
same,TGI,UACC-62 melanoma,21.2 µM
same,TGI,SN12C renal,28.6 µM
same,TGI,HCT-15 colon,25.3 µM
same,TGI,MALME-3M melanoma,24.5 µM
same,TGI,HCT-116 colon,19.5 µM
same,TGI,HL-60(TB) leukemia,12 µM
same,TGI,SK-OV-3 ovarian,40.1 µM
same,TGI,HT29 colon,25.2 µM
same,TGI,NCI-H522 lung,22.6 µM
same,TGI,SW-620 colon,19.6 µM
same,TGI,UACC-257 melanoma,28.7 µM
same,TGI,M19-MEL melanoma,25.5 µM
same,TGI,XF 498 CNS,15 µM
same,TGI,K-562 leukemia,14.1 µM
same,TGI,SNB-19 CNS,42.6 µM
same,TGI,SF-539 CNS,7.32 µM
same,TGI,LOX IMVI melanoma,24.5 µM
same,TGI,SK-MEL-5 melanoma,25.2 µM
same,TGI,OVCAR-3 ovarian,22.4 µM
same,TGI,RXF 393 renal,24.6 µM
same,TGI,CCRF-CEM leukemia,10.7 µM
same,TGI,OVCAR-8 ovarian,20.6 µM
same,TGI,IGROV1 ovarian,28.7 µM
same,TGI,NCI-H23 lung,23.2 µM
COC(=O)C(=Cc1cc(OC)c(OC)c(OC)c1-c1cc2c(cc1C1(C)OCCS1)OCO2)C(=O)OC (configuration not stated),TGI,786-0 renal,> 100 µM
same,TGI,KM12 colon,79.8 µM
same,TGI,SK-MEL-2 melanoma,69.6 µM
same,TGI,EKVX NSCLC,> 100 µM
same,TGI,ACHN renal,> 100 µM
same,TGI,OVCAR-5 ovarian,> 100 µM
same,TGI,DMS 273 small cell lung,75.1 µM
same,TGI,LXFL 529 NSCLC,> 100 µM
same,TGI,SF-268 CNS,> 100 µM
same,TGI,RPMI-8226 leukemia,> 100 µM
same,TGI,HOP-62 NSCLC,> 100 µM
same,TGI,COLO 205 colon,> 100 µM
same,TGI,A549 NSCLC,> 100 µM
same,TGI,U251 CNS,> 100 µM
same,TGI,HOP-92 NSCLC,37.6 µM
same,TGI,SF-295 CNS,> 100 µM
same,TGI,TK-10 renal,> 100 µM
same,TGI,SR leukemia,> 100 µM
same,TGI,NCI-H226 lung,> 100 µM
same,TGI,KM20L2 colon,> 100 µM
same,TGI,SK-MEL-28 melanoma,> 100 µM
same,TGI,RXF-631 renal,> 100 µM
same,TGI,DMS 114 small cell lung,> 100 µM
same,TGI,DLD-1 colon,> 100 µM
same,TGI,MOLT-4 leukemia,> 100 µM
same,TGI,NCI-H460 lung,> 100 µM
same,TGI,UACC-62 melanoma,> 100 µM
same,TGI,SN12C renal,> 100 µM
same,TGI,HCT-15 colon,> 100 µM
same,TGI,MALME-3M melanoma,> 100 µM
same,TGI,HCT-116 colon,> 100 µM
same,TGI,HL-60(TB) leukemia,> 100 µM
same,TGI,SK-OV-3 ovarian,> 100 µM
same,TGI,HT29 colon,> 100 µM
same,TGI,NCI-H522 lung,55.5 µM
same,TGI,SW-620 colon,> 100 µM
same,TGI,UACC-257 melanoma,> 100 µM
same,TGI,M19-MEL melanoma,> 100 µM
same,TGI,K-562 leukemia,> 100 µM
same,TGI,SNB-19 CNS,> 100 µM
same,TGI,SF-539 CNS,> 100 µM
same,TGI,CAKI-1 renal,> 100 µM
same,TGI,LOX IMVI melanoma,> 100 µM
same,TGI,SK-MEL-5 melanoma,> 100 µM
same,TGI,OVCAR-3 ovarian,54.6 µM
same,TGI,RXF 393 renal,> 100 µM
same,TGI,CCRF-CEM leukemia,> 100 µM
same,TGI,OVCAR-8 ovarian,> 100 µM
same,TGI,IGROV1 ovarian,> 100 µM
same,TGI,NCI-H23 lung,> 100 µM
same,TGI,HCC-2998 colon,> 100 µM
